According to ChEMBL document CHEMBL5223175, “Discovery of novel 2-oximino-2-indolylacetamide derivatives as potent anticancer agents capable of inducing cell autophagy and ferroptosis” (Bioorg Med Chem, 2023):
pIC50: −log10 of the molar value.

Key:
5-8F [1] = assay: Antiproliferative activity against human 5-8F cells assessed as reduction in cell viability incubated for 72 hrs by CCK-8 assay; assay type: functional, cell-based
CAL-27 = assay: Antiproliferative activity against human CAL-27 cells assessed as reduction in cell viability incubated for 72 hrs by CCK-8 assay; assay type: functional, cell-based; settings: CAL-27, 72 h
FaDu = assay: Antiproliferative activity against human FaDu cells assessed as reduction in cell viability incubated for 72 hrs by CCK-8 assay; assay type: functional, cell-based
[2] = Antiproliferative activity against human NP69SV40T cells assessed as reduction in cell viability incubated for 72 hrs by CCK-8 assay; assay type: toxicity, cell-based
[3] = Toxicity in BALB/c mouse xenografted with human 5-8F cells assessed as decrease in body weight at 2 mg/kg, ip administered every 2 days; assay type: organism-based; settings: in vivo, 48 h, time 2 day
5-8F [4] = assay: Antiproliferative activity against human 5-8F cells assessed as cell viability at 80 uM incubated for 72 hrs by CCK-8 assay; assay type: functional; settings: read-out: Activity
HeLa = assay: Antiproliferative activity against human HeLa cells assessed as cell viability at 80 uM incubated for 72 hrs by CCK-8 assay; assay type: functional; settings: read-out: Activity
SK-HEP1 = assay: Antiproliferative activity against human SK-HEP1 cells assessed as cell viability at 80 uM incubated for 72 hrs by CCK-8 assay; assay type: functional; settings: read-out: Activity

Compound | pIC50 (5-8F [1]) | pIC50 (CAL-27) | pIC50 (FaDu) | IC50 at 72 h [2] [nM] | Activity [3] | viability at 80 µM (5-8F [4]) [%] | viability at 80 µM (HeLa) [%] | viability at 80 µM (SK-HEP1) [%]
COc1cccc2c1C(=O)c1c(O)c3c(c(O)c1C2=O)C[C@@](O)(C(=O)CO)C[C@@H]3O[C@H]1C[C@H](N)[C@H](O)[C@H](C)O1 [DOXORUBICIN] | 6.47 | 6.74 | 6.80 | 110 | Toxic |  |  | 
Cc1ccccc1NC(=O)/C(=N/O)c1cn(C)c2ccccc12 |  |  |  |  |  | 95.3 | 77.1 | 76.8
Cn1cc(/C(=N/O)C(=O)Nc2ccc(Cl)cc2)c2ccccc21 |  |  |  |  |  | 47.2 | 57.2 | 71.6
Cn1cc(/C(=N/O)C(=O)Nc2ccc(Br)cc2)c2ccccc21 |  |  |  |  |  | 31.5 | 18.4 | 29.1
Cn1cc(/C(=N\O)C(=O)Nc2cccc(F)c2)c2ccccc21 |  |  |  |  |  | 59.3 | 53.2 | 40
Cn1cc(/C(=N/O)C(=O)Nc2cccc(F)c2)c2ccccc21 |  |  |  |  |  | 73.1 | 61.2 | 68
Cn1cc(/C(=N/O)C(=O)Nc2cccc(Cl)c2)c2ccccc21 |  |  |  |  |  | 78 | 64.6 | 64.6
Cn1cc(/C(=N\O)C(=O)Nc2cccc(Cl)c2)c2ccccc21 |  |  |  |  |  | 12.7 | 14 | 31.4
Cc1ccccc1NC(=O)/C(=N\O)c1cn(C)c2ccccc12 |  |  |  |  |  | 92.8 | 86.3 | 77.6
Cn1cc(/C(=N/O)C(=O)Nc2ccc(Br)c(F)c2)c2ccccc21 |  |  |  |  |  | 75 | 71.2 | 60.6
Cn1cc(/C(=N/O)C(=O)Nc2ccc(C(F)(F)F)cc2)c2ccccc21 |  |  |  |  |  | 45 | 25.7 | 51.5
Cn1cc(/C(=N\O)C(=O)Nc2ccc(Br)cc2)c2ccccc21 |  |  |  |  |  | 22.1 | 14.8 | 28.9
Cn1cc(/C(=N\O)C(=O)Nc2ccc(Br)c(F)c2)c2ccccc21 |  |  |  |  |  | 86.8 | 56.7 | 75.6
Cn1cc(/C(=N\O)C(=O)Nc2ccc(C(F)(F)F)cc2)c2ccccc21 |  |  |  |  |  | 10.2 | 15.8 | 15
